The conditions of data set [1]: snar bond.
Data set [2] addresses T1, CFTR-mediated chloride transport (Homo sapiens, UniProt P13569). In words: Corrector Assay A - membrane potential dye assay (enteroid cells). As to conditions: for Corrector Assay A % activity: % of chloride transport of triple combination control (1 μM (14S)-dispiro macrocycle + 3 μM tezacaftor + 300 nM ivacaftor); for EC50: read-out: Corrector Assay A EC50, human intestinal enteroid cells, 18-24 h incubation, acute 10 μM forskolin + 300 nM ivacaftor.

Data set [3] concerns the target T1, CFTR-mediated chloride transport. In words: Corrector Assay B - membrane potential dye assay (enteroid cells).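 On all read-outs here: methyl oxonol membrane potential fluorescence followed over 15 min after switching to chloride-free buffer with forskolin, 100 µM IBMX and ivacaftor, in presence of CaCC blockers.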 To be noted: for Corrector Assay B % activity: % of chloride transport of triple combination control (3 μM Compound A + 3 μM tezacaftor + 300 nM ivacaftor); for EC50: read-out: Corrector Assay B EC50, human intestinal enteroid cells, 18-24 h incubation, acute 10 μM forskolin + 300 nM ivacaftor.

Read-outs that look alike come from different tables or passages of the source. Where only a bound is given, the exact number is not on record here.

`CC(C)(C)c1ccnc([C@H]2CC[C@@H]3CN(c4nc(Br)ccc4C(=O)NS(=O)(=O)c4cccc(n4)N2)C(C)(C)C3)c1` [Compound 55, (14S,17R)-8-bromo-17-(4-tert-butylpyridin-2-yl)-12,12-dimethyl-2λ^6-thia-3,9,11,18,23-pentaazatetracyclo[17.3.1.111,14.05,10]tetracosa-1(22),5,7,9,19(23),20-hexaene-2,2,4-trione] displayed a ring closure, yield after HPLC in data set [1] (from CC1(C)C[C@@H](CCC(Nc2cccc(S(=O)(=O)NC(=O)c3ccc(Br)nc3Cl)n2)c2cc(C(C)(C)C)ccn2)CN1, 15-membered ring, K2CO3, DMA, 97.8 mM, 140.0 °C, 7.0 h) of 23%. In data set [2], the “Corrector Assay A % activity” value is reported as “++ (++ is 30-60%)” and the EC50 (usually the concentration needed to bring the measured effect to its halfway point) was less than 1 µM.
Consider `CC1(C)C[C@@H]2CC[C@H](c3cccc(C(F)(F)F)n3)Nc3cccc(n3)S(=O)(=O)NC(=O)c3ccc(Br)nc3N1C2` [Compound 56, (14S,17R)-8-Bromo-12,12-dimethyl-17-[6-(trifluoromethyl)pyridin-2-yl]-2λ^6-thia-3,9,11,18,23-pentaazatetracyclo[17.3.1.111,14.05,10]tetracosa-1(22),5,7,9,19(23),20-hexaene-2,2,4-trione], for which the ring closure, yield after HPLC in data set [1] (from CC1(C)C[C@@H](CCC(Nc2cccc(S(=O)(=O)NC(=O)c3ccc(Br)nc3Cl)n2)c2cccc(C(F)(F)F)n2)CN1, 15-membered ring, K2CO3, DMA, 98.5 mM, 140.0 °C) came out at 21%. In data set [2], the “Corrector Assay A % activity” value is given as “+ (+ is <30%)” and the EC50 is greater than 3 µM.
As for `CC(C)(C)c1ccc2c(n1)N1C[C@@H](CCCn3ccc4ccc(cc43)S(=O)(=O)NC2=O)CC1(C)C` [Compound 260, (5S)-11-tert-Butyl-7,7-dimethyl-17λ^6-thia-1,8,10,16-tetraazapentacyclo[16.5.2.15,8.09,14.021,24]hexacosa-9(14),10,12,18,20,22,24-heptaene-15,17,17-trione], in data set [1] (from CC(C)(C)OC(=O)N1C[C@@H](CCCn2ccc3ccc(S(=O)(=O)NC(=O)c4ccc(C(C)(C)C)nc4Cl)cc32)CC1(C)C, 15-membered ring, K2CO3, NMP, 118.8 mM, 160.0 °C, 2 steps), the ring closure, yield after HPLC stood at 5%. For the same compound, in data set [2], the “Corrector Assay A % activity” value was “+ (+ is <30%)” and the EC50 was less than 1 µM.
`CC1(C)CCCc2cc3c(nc21)N1C[C@@H](CCCNc2cccc(n2)S(=O)(=O)NC3=O)CC1(C)C` [Compound 265, (18S)-11,11,16,16-Tetramethyl-2λ^6-thia-3,13,15,22,27-pentaazapentacyclo[21.3.1.115,18.05,14.07,12]octacosa-1(27),5(14),6,12,23,25-hexaene-2,2,4-trione]: the ring closure, yield after HPLC in data set [1] (from CC1(C)C[C@H](CCCNc2cccc(S(=O)(=O)NC(=O)c3cc4c(nc3Cl)C(C)(C)CCC4)n2)CN1, 15-membered ring, K2CO3/3A MS, NMP, 33.9 mM, 170.0 °C, 84.0 h, 2 steps) is 11%. Also, in data set [2], the “Corrector Assay A % activity” value was “++ (++ is 30-60%)” and the EC50 is less than 1 µM.
Consider `CC1(C)C[C@@H]2CCCN(Cc3nn[nH]n3)c3cccc(n3)S(=O)(=O)NC(=O)c3ccc(-n4ccc(OCCC5(C(F)(F)F)CC5)n4)nc3N1C2` [Compound 372, (14S)-12,12-Dimethyl-18-[(2H-1,2,3,4-tetrazol-5-yl)methyl]-8-(3-{2-[1-(trifluoromethyl)cyclopropyl]ethoxy}-1H-pyrazol-1-yl)-2λ^6-thia-3,9,11,18,23-pentaazatetracyclo[17.3.1.111,14.05,10]tetracosa-1(23),5(10),6,8,19,21-hexaene-2,2,4-trione], for which, in data set [3], the “Corrector Assay B % activity” value is reported as “+++ (+++ is >60%)” and the EC50 was in the range of 1 to 3 µM. In addition, the ring closure, yield after HPLC in data set [1] (from CC1(C)C[C@H](CCCN(Cc2nn[nH]n2)c2cccc(S(=O)(=O)NC(=O)c3ccc(-n4ccc(OCCC5(C(F)(F)F)CC5)n4)nc3Cl)n2)CN1, 15-membered ring, K2CO3/3A MS, DMSO, 25.8 mM, 155.0 °C, 18.0 h, 2 steps) was 18%.
Consider `CC1(C)C[C@@H]2CCCn3nnnc3CNc3cccc(n3)S(=O)(=O)NC(=O)c3ccc(-n4ccc(OCCC5(C(F)(F)F)CC5)n4)nc3N1C2` [Compound 380, (12S)-14,14-dimethyl-18-(3-{2-[1-(trifluoromethyl)cyclopropyl]ethoxy}-1H-pyrazol-1-yl)-24λ^6-thia-2,5,6,7,8,15,17,23,29-noNaazapentacyclo [23.3.1.112,15.04,8.016,21]triaconta-1(28),4,6,16,18,20,25(29),26-octaene-22,24,24-trione], for which, in data set [3], the “Corrector Assay B % activity” value is reported as “+++ (+++ is >60%)” and the EC50 is less than 1 µM. Moreover, the ring closure, yield after HPLC in data set [1] (from CC1(C)C[C@H](CCCn2nnnc2CNc2cccc(S(=O)(=O)NC(=O)c3ccc(-n4ccc(OCCC5(C(F)(F)F)CC5)n4)nc3Cl)n2)CN1, 18-membered ring, K2CO3/3A MS, DMSO, 35.1 mM, 155.0 °C, 16.0 h, 2 steps) came to 41%.

Values taken from patent publication US20220313698A1, “MODULATORS OF CYSTIC FIBROSIS TRANSMEMBRANE CONDUCTANCE REGULATOR” (Vertex Pharmaceuticals Incorporated, priority 2019, published 2022).
